# Results from EP4596574A1, “GLP-1/GCG/GIP TRIPLE-RECEPTOR AGONIST AND USE THEREOF” (Sunshine Lake Pharma Co., Ltd., priority 2022, dated 2024).
# Marks after values point to notes of the source that are not given here.
# Assays:
# [1] = Long-term repeated administration in diet-induced obese C57BL/6 mice (DIO); type: in vivo, C57/BL6 mice
# Description: Experimental methods: C57/BL6 mice were randomly divided into a normal group (NFD) and a model group (HFD) at the fifth week of age. The normal group was fed with ordinary maintenance feed, while the other groups were fed with high-fat feed D12492. The body weight and food intake of mice were monitored every 3 weeks. After 16 weeks of feeding, the body weights of mice in the model group and the normal group were (49.0±2.3) g and (31.0±2.0) g, respectively, and the difference between the two groups was statistically significant. […] Body weight and food intake were measured before each administration. After 3 weeks of administration, an intraperitoneal glucose tolerance test was performed. The mice were slaughtered and samples were collected 72 h after the last administration. The liver weight was recorded, and the liver pathological conditions and blood biochemical indexes of each group were tested.
# [2] = Glucose tolerance assessment in normal C57BL/6 mice (Example 4); type: in vivo; settings: 3 nmol/kg s.c. single dose, 24 h after administration
# Description: (§1) Twelve hours after the single administration, the animals were fasted for 12 hours and had free access to water. Blood was collected from the tail vein to determine the basal blood glucose level of each group of animals, and then 2 g/kg glucose solution was injected intraperitoneally. Blood glucose was tested at 15, 30, 60, and 90 min after glucose administration. The blood glucose concentration-time curve was drawn according to the blood glucose values measured at different time points, and the AUC0~90min of each dose group was calculated as shown in Table 4 and Figure 1. Table 4: Effects of single administration of HEC-PT74, HEC-PT75, HEC-PT77, HEC-PT78, HEC-PT80, and HEC-PT82 on glucose tolerance in normal C57 mice 24 h after administration
# [3] = Glucose tolerance assessment in normal C57BL/6 mice (Example 5); type: in vivo; settings: 3 nmol/kg s.c. single dose, 24 h after administration
# Description: as §1, with “Table 5” for “Table 4”, “Figure 2.” for “Figure 1.”, “Table 5:” for “Table 4:”, “of HEC-PT86, HEC-PT96, HEC-PT112, HEC-PT113, HEC-PT114,” for “of HEC-PT74, HEC-PT75, HEC-PT77, HEC-PT78, HEC-PT80,”, “and HEC-PT119” for “and HEC-PT82”
# [4] = In vivo efficacy evaluation in db/db mouse model (blood glucose); parameters: species or system db/db mice; settings: db/db mice
# Description: Blood glucose was tested before each administration.
# [5] = 10 nmol/kg s.c. once every 3 days, D7
# [6] = 10 nmol/kg s.c. once every 3 days, D10
# [7] = 10 nmol/kg s.c. once every 3 days, D13
# [8] = 10 nmol/kg s.c. once every 3 days, D16
# [9] = 10 nmol/kg s.c. once every 3 days, D19
# [10] = 10 nmol/kg s.c. once every 3 days, D22
# [11] = 10 nmol/kg s.c. once every 3 days, D25
# [12] = 10 nmol/kg s.c. once every 3 days, D28
# [13] = long-term administration 10 nmol/kg, 72 h after the last administration
# [14] = long-term administration 10 nmol/kg, blood biochemical index
# [15] = 15 min after 2 g/kg glucose i.p.
# [16] = 30 min after 2 g/kg glucose i.p.
# [17] = 60 min after 2 g/kg glucose i.p.
# [18] = 90 min after 2 g/kg glucose i.p.
# [19] = basal before 2 g/kg glucose i.p.
# [20] = blood glucose AUC, 2 g/kg glucose i.p.
smiles,measurement,setting,value
"CC[C@H](C)[C@H](NC(=O)[C@H](CC(C)C)NC(=O)[C@H](Cc1c[nH]c2ccccc12)NC(=O)[C@H](CCC(N)=O)NC(=O)[C@@H](NC(=O)[C@H](Cc1ccccc1)NC(=O)[C@H](C)NC(=O)[C@H](CCCCNC(=O)COCCOCCNC(=O)COCCOCCNC(=O)CC[C@H](NC(=O)CCCCCCCCCCCCCCCCCCC(=O)O)C(=O)O)NC(=O)[C@H](CCC(N)=O)NC(=O)[C@H](C)NC(=O)[C@@H](NC(=O)[C@H](CCCCN)NC(=O)[C@H](CC(=O)O)NC(=O)[C@H](CC(C)C)NC(=O)C(C)(C)NC(=O)[C@@H](NC(=O)[C@H](CO)NC(=O)[C@H](Cc1ccc(O)cc1)NC(=O)[C@H](CC(=O)O)NC(=O)[C@H](CO)NC(=O)[C@@H](NC(=O)[C@H](Cc1ccccc1)NC(=O)[C@@H](NC(=O)CNC(=O)[C@H](CCC(=O)O)NC(=O)C(C)(C)NC(=O)[C@@H](N)Cc1ccc(O)cc1)[C@@H](C)O)[C@@H](C)O)[C@@H](C)CC)[C@@H](C)CC)C(C)C)C(=O)N[C@@H](C)C(=O)NCC(=O)NCC(=O)N1CCC[C@H]1C(=O)N[C@@H](CO)C(=O)N[C@@H](CO)C(=O)NCC(=O)N[C@@H](C)C(=O)N1CCC[C@H]1C(=O)N1CCC[C@H]1C(=O)N1CCC[C@H]1C(=O)N[C@@H](CO)C(N)=O [LY3298176, tirzepatide, reference compound]",Cumulative food intake (g/pcs) D7,[1]; [5],10.2 g/pcs
same,Weight gain rate (%) D7,[1]; [5],-15.4±2.9%
same,Cumulative food intake (g/pcs) D10,[1]; [6],13.0 g/pcs
same,Weight gain rate (%) D10,[1]; [6],-19.6±3.2%
same,Cumulative food intake (g/each) D13,[1]; [7],16.6 g/each
same,Weight gain rate (%) D13,[1]; [7],-24.3±6.4%
same,Cumulative food intake (g/each) D16,[1]; [8],22.1 g/each
same,Weight gain rate (%) D16,[1]; [8],-23.4±5.1%
same,Cumulative food intake (g/each) D19,[1]; [9],27.9 g/each
same,Weight gain rate (%) D19,[1]; [9],-26.0±7.3%
same,Cumulative food intake (g/each) D22,[1]; [10],34.2 g/each
same,Weight gain rate (%) D22,[1]; [10],-26.7±7.7%
same,Cumulative food intake (g/each) D25,[1]; [11],40.6 g/each
same,Weight gain rate (%) D25,[1]; [11],-27.7±7.0%
same,Cumulative food intake (g/each) D28,[1]; [12],48.1 g/each
same,Weight gain rate (%) D28,[1]; [12],-28.2±7.3%
same,Cumulative food intake (g/each) D30,"[1]; 10 nmol/kg s.c. once every 3 days, D30",51.9^a g/each
same,Weight gain rate (%) D31,"[1]; 10 nmol/kg s.c. once every 3 days, D31",-28.0±6.8^a %
same,Cumulative food intake (g/pcs) D0,"[1]; 10 nmol/kg s.c., D0",2.7 g/pcs
same,Weight gain rate (%) D0,"[1]; 10 nmol/kg s.c., D0",0.0±0.0%
same,Cumulative food intake (g/pcs) D1,"[1]; 10 nmol/kg s.c., D1",3.0 g/pcs
same,Weight gain rate (%) D1,"[1]; 10 nmol/kg s.c., D1",-6.4±0.9%
same,Cumulative food intake (g/pcs) D2,"[1]; 10 nmol/kg s.c., D2",3.8 g/pcs
same,Weight gain rate (%) D2,"[1]; 10 nmol/kg s.c., D2",-8.9±1.3%
same,Cumulative food intake (g/pcs) D3,"[1]; 10 nmol/kg s.c., D3",5.1 g/pcs
same,Weight gain rate (%) D3,"[1]; 10 nmol/kg s.c., D3",-8.7±1.9%
same,Cumulative food intake (g/pcs) D4,"[1]; 10 nmol/kg s.c., D4",7.4 g/pcs
same,Weight gain rate (%) D4,"[1]; 10 nmol/kg s.c., D4",-7.7±2.1%
same,Liver/g,[1]; [13],1.0±0.1^a g
same,Weight/g,[1]; [13],32.6±3.9^a g
same,ALT (U/L),[1]; [14],30.9±3.1^a U/L
same,AST (U/L),[1]; [14],110.3±17.6^a U/L
same,CHOL (mmol/L),[1]; [14],3.3±0.5^a mmol/L
same,TRIGL (mmol/L),[1]; [14],0.6±0.1^a mmol/L
same,Blood glucose level (mM) 15 min,[2]; [15],12.6 ± 3.5 mM
same,Blood glucose level (mM) 30 min,[2]; [16],9.5 ± 3.3 mM
same,Blood glucose level (mM) 60 min,[2]; [17],7.9 ± 1.4 mM
same,Blood glucose level (mM) 90 min,[2]; [18],6.5 ± 1.3 mM
same,Blood glucose level (mM) 0 min,[2]; [19],4.0 ± 0.8 mM
same,AUC0-90 min,[2]; [20],768.2±171.6^a
same,Blood glucose level (mM) 15 min,[3]; [15],13.6 ± 3.1 mM
same,Blood glucose level (mM) 30 min,[3]; [16],9.9 ± 3.2 mM
same,Blood glucose level (mM) 60 min,[3]; [17],6.9 ± 0.9 mM
same,Blood glucose level (mM) 90 min,[3]; [18],7.2 ± 0.9 mM
same,Blood glucose level (mM) 0 min,[3]; [19],4.9 ± 1.0 mM
same,AUC0-90 min,[3]; [20],776.9±125.6^a
same,Random blood glucose (mM) D0,"[4]; 10 nmol/kg s.c. once every three days, D0 (before first dose)",26.1 ± 3.8 mM
same,Random blood glucose (mM) D3,"[4]; 10 nmol/kg s.c. once every three days, D3",22.4 ± 3.7 mM
same,Random blood glucose (mM) D4,"[4]; 10 nmol/kg s.c. once every three days, D4",22.1 ± 4.0 mM
same,Random blood glucose (mM) D5,"[4]; 10 nmol/kg s.c. once every three days, D5",24.2 ± 3.9 mM
same,Random blood glucose (mM) D6,"[4]; 10 nmol/kg s.c. once every three days, D6",25.3 ± 4.0 mM
same,Random blood glucose (mM) D7,"[4]; 10 nmol/kg s.c. once every three days, D7",23.5 ± 2.6 mM
same,Random blood glucose (mM) D10,"[4]; 10 nmol/kg s.c. once every three days, D10",18.5 ± 5.1 mM
same,Random blood glucose (mM) D13,"[4]; 10 nmol/kg s.c. once every three days, D13",20.1 ± 5.8 mM
same,Random blood glucose (mM) D16,"[4]; 10 nmol/kg s.c. once every three days, D16",18.6 ± 4.0 mM
same,Random blood glucose (mM) D19,"[4]; 10 nmol/kg s.c. once every three days, D19",18.7 ± 3.8 mM
same,Random blood glucose (mM) D22,"[4]; 10 nmol/kg s.c. once every three days, D22",16.2 ± 4.6 mM
same,Random blood glucose (mM) D25,"[4]; 10 nmol/kg s.c. once every three days, D25",16.6±3.7^a mM
same,Random blood glucose (mM) 6 h,"[4]; 10 nmol/kg s.c., 6 h",16.8 ± 5.0 mM
same,Random blood glucose (mM) 24 h,"[4]; 10 nmol/kg s.c., 24 h",13.0 ± 6.7 mM
same,Random blood glucose (mM) 48 h,"[4]; 10 nmol/kg s.c., 48 h",19.9 ± 5.6 mM
